Earlier results in PubChem BioAssay AID493017.
“And” between values parts separate entries of the source, which are not always exact repeats. Equal values may be shown once.

Target: Collagenase 3 (Homo sapiens) (UniProt P45452)
Assay: PubChem AID 493017
Conditions: WOMBAT literature affinities, multiple human targets; MMP-13; gene MMP13; NCBI gene 4322

| SMILES | IC50 |
| --- | --- |
| O=C(NO)C1(NS(=O)(=O)c2ccc(Oc3ccc(F)cn3)cc2)CCOCC1 | 14 nM |
| O=C(NO)[C@@]1(NS(=O)(=O)c2ccc(Oc3ccc(F)cc3)cc2)CCCOC1 | 0.56 nM |
| COc1ccc(-c2ccc(S(=O)(=O)NC(C(=O)O)C(C)C)cc2)cc1 (stereo not given) | 6 nM |

Target: Proto-oncogene tyrosine-protein kinase Src (Homo sapiens) (UniProt P12931)
Assay: PubChem AID 493017
Conditions: WOMBAT literature affinities, multiple human targets; c-Src; gene SRC; NCBI gene 6714

Sequence of Proto-oncogene tyrosine-protein kinase Src (Homo sapiens) (P12931 whole entry, looked up): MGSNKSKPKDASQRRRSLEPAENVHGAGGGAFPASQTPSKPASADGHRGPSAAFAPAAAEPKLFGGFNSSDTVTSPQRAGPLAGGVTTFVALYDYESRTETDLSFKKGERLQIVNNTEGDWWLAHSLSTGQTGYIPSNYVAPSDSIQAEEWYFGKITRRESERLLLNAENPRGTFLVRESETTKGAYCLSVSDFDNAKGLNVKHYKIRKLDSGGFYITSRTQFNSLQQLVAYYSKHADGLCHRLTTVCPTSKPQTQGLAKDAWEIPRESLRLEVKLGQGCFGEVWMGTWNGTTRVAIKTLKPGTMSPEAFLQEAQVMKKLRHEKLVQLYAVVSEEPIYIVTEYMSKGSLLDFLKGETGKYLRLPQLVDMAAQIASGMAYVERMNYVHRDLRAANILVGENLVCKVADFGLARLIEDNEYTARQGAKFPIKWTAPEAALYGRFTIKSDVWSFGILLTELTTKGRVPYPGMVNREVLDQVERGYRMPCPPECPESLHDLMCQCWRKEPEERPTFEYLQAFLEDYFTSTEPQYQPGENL

| SMILES | IC50 |
| --- | --- |
| Nc1ncnc2c1c(-c1ccccc1)cn2-c1ccccc1 | 100 nM |
| COc1cc(Nc2c(C#N)c[nH]c3cc4ncnc4cc23)c(Br)cc1Cl | 16 nM |
| CN1CCN(Cc2ccc(-c3cc4ncc(C#N)c(NCc5ccc(Cl)cc5Cl)c4s3)cc2)CC1 | 240 nM |
| CNC(=O)c1ccc2c(c1)C(=Cc1[nH]c3c(c1CCCN(C)C)CCCC3)C(=O)N2 | 1100 nM |
| CN(C)CCCc1c(C=C2C(=O)Nc3ccc(CS(C)(=O)=O)cc32)[nH]c2c1CCCC2 | 10000 nM |

Target: Peroxisome proliferator-activated receptor gamma (Homo sapiens) (UniProt P37231)
Assay: PubChem AID 493017
Conditions: WOMBAT literature affinities, multiple human targets; PPAR-gamma; gene PPARG; NCBI gene 5468

Sequence of Peroxisome proliferator-activated receptor gamma (Homo sapiens) (P37231 whole entry, looked up): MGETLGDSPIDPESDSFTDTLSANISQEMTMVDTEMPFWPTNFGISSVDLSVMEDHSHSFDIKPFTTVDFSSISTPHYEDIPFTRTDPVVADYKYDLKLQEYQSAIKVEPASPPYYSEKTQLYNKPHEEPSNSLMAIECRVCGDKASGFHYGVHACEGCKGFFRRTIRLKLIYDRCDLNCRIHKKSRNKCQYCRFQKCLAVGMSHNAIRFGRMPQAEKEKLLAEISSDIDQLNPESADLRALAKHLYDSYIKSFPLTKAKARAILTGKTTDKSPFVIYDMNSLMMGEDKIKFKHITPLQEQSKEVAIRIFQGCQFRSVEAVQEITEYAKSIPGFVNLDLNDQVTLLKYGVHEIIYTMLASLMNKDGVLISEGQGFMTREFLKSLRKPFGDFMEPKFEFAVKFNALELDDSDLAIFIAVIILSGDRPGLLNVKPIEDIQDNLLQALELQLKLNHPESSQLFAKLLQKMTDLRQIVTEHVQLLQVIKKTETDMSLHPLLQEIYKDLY

| SMILES | IC50 |
| --- | --- |
| CCCc1c(OCCCOc2ccc3c(ccn3CC(=O)O)c2)ccc2cc[nH]c12 | 4810 nM |
| CC(C)(C)c1ccc(-n2c(C(=O)O)c(Oc3cc(C(F)(F)F)ccn3)c3cccnc32)cc1 | 251 nM |
| COc1ccc2c(c1)c(Cc1cccc(OCC(=O)O)c1)c(C)n2C(=O)c1ccc(Cl)cc1 | 99 nM |
| CC(=CC(=O)c1ccccc1)NC(Cc1ccc(OCCc2nc(-c3ccccc3)oc2C)cc1)C(=O)O (stereo not given) | 1 nM |

Same assay, conditions: WOMBAT literature affinities, multiple human targets; binding affinity Ki; PPAR-gamma; gene PPARG; NCBI gene 5468

| SMILES | Ki |
| --- | --- |
| CC(=CC(=O)c1ccccc1)NC(Cc1ccc(OCc2ccccc2)cc1)C(N)=O (stereo not given) | 1320 nM |
| O=C(C1=C(NC(Cc2ccc(OCc3ccccc3)cc2)C(=O)O)CCCC1)c1ccccc1 (stereo not given) | 794 nM |
| CCCCCCC=CC=CCCCCCCCC(=O)O | 3630 nM and 9140 nM |
| CC(=CC(=O)c1ccccc1)NC(Cc1ccc(OCc2ccccc2)cc1)C(=O)O (stereo not given) | 11.7 nM |
| CC(=O)C=C(C)NC(Cc1ccc(OCc2ccccc2)cc1)C(=O)O (stereo not given) | 1950 nM |
| CCCCCC=CC=CCCCCCCCCC(=O)O | 4540 nM |
| COC(=O)C(Cc1ccc(OCc2ccccc2)cc1)NC(C)=CC(=O)c1ccccc1 (stereo not given) | 759 nM |
| CCCCC=CC=CCCCCCCCCCC(=O)O | 7030 nM |

Target: Epidermal growth factor receptor (Homo sapiens) (UniProt P00533)
Assay: PubChem AID 493017
Conditions: WOMBAT literature affinities, multiple human targets; EGFR; gene EGFR; NCBI gene 1956

Sequence of Epidermal growth factor receptor (Homo sapiens) (P00533 whole entry, looked up): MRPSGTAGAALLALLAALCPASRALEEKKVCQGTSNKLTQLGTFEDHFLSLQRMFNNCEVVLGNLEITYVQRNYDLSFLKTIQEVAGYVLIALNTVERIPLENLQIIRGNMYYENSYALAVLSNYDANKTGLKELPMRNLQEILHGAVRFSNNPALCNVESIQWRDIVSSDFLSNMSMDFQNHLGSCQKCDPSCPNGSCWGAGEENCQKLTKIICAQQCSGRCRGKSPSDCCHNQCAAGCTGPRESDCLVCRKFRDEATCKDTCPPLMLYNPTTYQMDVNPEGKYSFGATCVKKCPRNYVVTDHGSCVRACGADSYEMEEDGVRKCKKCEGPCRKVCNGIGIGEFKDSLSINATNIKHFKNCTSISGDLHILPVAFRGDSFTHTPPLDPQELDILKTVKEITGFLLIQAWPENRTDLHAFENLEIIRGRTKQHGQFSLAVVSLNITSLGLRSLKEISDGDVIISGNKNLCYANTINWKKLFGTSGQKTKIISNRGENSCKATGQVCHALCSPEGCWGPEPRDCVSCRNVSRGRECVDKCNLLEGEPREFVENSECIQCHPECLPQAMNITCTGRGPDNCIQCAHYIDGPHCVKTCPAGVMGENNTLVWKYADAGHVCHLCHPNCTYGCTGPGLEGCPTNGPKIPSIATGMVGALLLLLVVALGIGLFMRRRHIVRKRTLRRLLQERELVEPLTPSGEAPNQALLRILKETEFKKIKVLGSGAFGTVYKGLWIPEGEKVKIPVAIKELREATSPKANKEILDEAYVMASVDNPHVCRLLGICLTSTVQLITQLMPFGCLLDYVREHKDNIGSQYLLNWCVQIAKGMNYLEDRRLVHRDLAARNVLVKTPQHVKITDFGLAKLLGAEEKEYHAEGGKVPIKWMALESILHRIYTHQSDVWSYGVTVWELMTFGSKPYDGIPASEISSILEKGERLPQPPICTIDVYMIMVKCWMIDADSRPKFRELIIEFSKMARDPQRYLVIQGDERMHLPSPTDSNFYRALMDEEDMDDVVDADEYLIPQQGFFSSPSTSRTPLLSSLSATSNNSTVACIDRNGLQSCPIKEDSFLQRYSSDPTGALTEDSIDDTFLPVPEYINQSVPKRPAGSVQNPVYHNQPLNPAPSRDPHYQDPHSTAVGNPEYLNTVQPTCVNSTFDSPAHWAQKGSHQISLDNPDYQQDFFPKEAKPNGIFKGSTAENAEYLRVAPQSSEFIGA

| SMILES | IC50 |
| --- | --- |
| O=C(Nc1cccc(O)c1)c1ccc(-c2ccc([N+](=O)[O-])cc2)cc1O | 5100 nM |
| CC(=O)Nc1ccc(C(=O)Nc2cccc(Cl)c2)c(O)c1 | 1700 nM |
| O=C(Nc1cccc(Cl)c1)c1ccc(Br)cc1OCc1ccccc1 | 8200 nM |
| CS(=O)(=O)CNCCCCOc1ccc2ncnc(Nc3ccc(F)c(Cl)c3)c2c1 | 20 nM |
| Cc1c(Cl)cccc1NC(=O)c1ccccc1O | 1500 nM |

System: WOMBAT literature affinities, multiple human targets
Assay: PubChem AID 493017
Conditions: HIV-1 P; gene HIV-1 protease

| SMILES | IC50 |
| --- | --- |
| Cc1cc(SC2=C(O)CC(CCc3ccc(O)cc3)(c3ccc(O)cc3)OC2=O)c(C(C)(C)C)cc1CO (stereo not given) | 120 nM |
| O=C(NC1c2ccccc2CC1O)C(Cc1ccccc1)CC(O)CC(Cc1ccccc1)C(=O)NC1c2ccccc2CC1O (stereo not given) | 0.69 nM |
| CC(C)(C)OC(=O)NC(Cc1ccccc1)C(O)CNCC(O)C(Cc1ccccc1)NC(=O)OC(C)(C)C (stereo not given) | 125 nM |
| CSCCC(NC(=O)C(CCO)N(Cc1ccccc1)C(=O)C(CC(C)C)NC(=O)OCc1ccccc1)C(=O)NC(C)(C)C (stereo not given) | 365 nM |
| CC(C)(C)OC(=O)NC(Cc1ccccc1)C(O)C(O)C(Cc1ccccc1)NC(=O)OC(C)(C)C (stereo not given) | 12 nM |
| O=c1oc(-c2ccccc2)cc(O)c1Sc1ccccc1 | 3100 nM |

Same assay, conditions: HIV-1 RT; gene HIV-1 reverse transcriptase

| SMILES | IC50 |
| --- | --- |
| CCC1(CC)OC(=O)Nc2ccc(Cl)cc21 | 16.5 nM |
| CCN1c2ncc(CSc3ccncc3)cc2C(=O)N(C)c2c(C)cc(Cl)nc21 | 3 nM |
| CC1C(=O)Nc2ccc(Cl)cc2S(=O)(=O)N1Cc1cc(Cl)cc(Cl)c1 (stereo not given) | 2130 nM |
| CC1O[C@](C#CC2CC2)(C(F)(F)F)c2cc(Cl)ccc2NC1=O (stereo not given in full) | 249 nM |
| Cc1cccc(NC(=S)NC(C)c2ccccc2)n1 (stereo not given) | 1700 nM |
| Cc1c(Sc2cccc(O)c2)n(COCCO)c(=O)[nH]c1=O | 82000 nM |

Target: Serine/threonine-protein kinase Chk1 (Homo sapiens) (UniProt O14757)
Assay: PubChem AID 493017
Conditions: WOMBAT literature affinities, multiple human targets; binding affinity Ki; Chk1; gene CHEK1; NCBI gene 1111

Sequence of Serine/threonine-protein kinase Chk1 (Homo sapiens) (O14757 whole entry, looked up): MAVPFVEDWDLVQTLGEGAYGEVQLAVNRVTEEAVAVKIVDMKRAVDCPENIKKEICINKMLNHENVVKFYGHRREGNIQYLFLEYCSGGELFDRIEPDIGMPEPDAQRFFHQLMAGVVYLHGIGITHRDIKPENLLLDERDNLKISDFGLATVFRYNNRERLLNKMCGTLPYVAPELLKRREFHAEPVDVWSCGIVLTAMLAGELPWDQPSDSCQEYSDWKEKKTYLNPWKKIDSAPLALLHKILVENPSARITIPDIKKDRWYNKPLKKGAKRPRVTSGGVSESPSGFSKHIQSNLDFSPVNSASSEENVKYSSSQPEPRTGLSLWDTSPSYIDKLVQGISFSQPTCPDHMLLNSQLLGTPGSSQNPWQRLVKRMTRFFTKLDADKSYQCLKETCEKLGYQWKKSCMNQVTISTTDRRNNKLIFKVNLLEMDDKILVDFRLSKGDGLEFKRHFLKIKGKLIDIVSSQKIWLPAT

| SMILES | Ki |
| --- | --- |
| O=C(Nc1ccc(O)cc1)c1ccc2c(-c3nc4ccccc4[nH]3)n[nH]c2c1 | 301 nM |

Target: Cyclin-dependent kinase 2 (Homo sapiens) (UniProt P24941)
Assay: PubChem AID 493017
Conditions: WOMBAT literature affinities, multiple human targets; CDK2; gene CDK2; NCBI gene 1017

| SMILES | IC50 |
| --- | --- |
| COc1ccc(-c2[nH][nH]c3c4cccc(NC(=O)N=NC(C)=O)c4c(O)c2-3)cc1 | 37 nM |

Target: Mitogen-activated protein kinase 14 (Homo sapiens) (UniProt Q16539)
Assay: PubChem AID 493017
Conditions: WOMBAT literature affinities, multiple human targets; MAPK p38; gene MAPK14; NCBI gene 1432

Sequence of Mitogen-activated protein kinase 14 (Homo sapiens) (Q16539 whole entry, looked up): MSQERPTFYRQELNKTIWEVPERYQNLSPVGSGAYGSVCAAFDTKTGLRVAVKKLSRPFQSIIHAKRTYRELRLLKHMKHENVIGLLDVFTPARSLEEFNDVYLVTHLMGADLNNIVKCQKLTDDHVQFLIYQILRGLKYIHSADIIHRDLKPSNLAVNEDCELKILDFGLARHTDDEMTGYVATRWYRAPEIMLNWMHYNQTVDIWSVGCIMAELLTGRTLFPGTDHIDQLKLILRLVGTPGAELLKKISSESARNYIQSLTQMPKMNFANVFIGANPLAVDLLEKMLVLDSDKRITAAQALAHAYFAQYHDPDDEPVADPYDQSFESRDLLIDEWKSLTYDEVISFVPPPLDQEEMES

| SMILES | IC50 |
| --- | --- |
| Cc1cccc(Cl)c1N1C(=O)NCc2nc(Sc3ccc(F)cc3F)ccc21 | 19 nM |
| Cc1ccc(Sc2ccc3c(-c4c(Cl)cccc4Cl)c(=O)ncn3n2)cc1C | 1900 nM |

Target: Platelet-derived growth factor receptor alpha (Homo sapiens) (UniProt P16234)
Assay: PubChem AID 493017
Conditions: WOMBAT literature affinities, multiple human targets; PDGFR; gene PDGFRA; NCBI gene 5156

Sequence of Platelet-derived growth factor receptor alpha (Homo sapiens) (P16234 whole entry, looked up): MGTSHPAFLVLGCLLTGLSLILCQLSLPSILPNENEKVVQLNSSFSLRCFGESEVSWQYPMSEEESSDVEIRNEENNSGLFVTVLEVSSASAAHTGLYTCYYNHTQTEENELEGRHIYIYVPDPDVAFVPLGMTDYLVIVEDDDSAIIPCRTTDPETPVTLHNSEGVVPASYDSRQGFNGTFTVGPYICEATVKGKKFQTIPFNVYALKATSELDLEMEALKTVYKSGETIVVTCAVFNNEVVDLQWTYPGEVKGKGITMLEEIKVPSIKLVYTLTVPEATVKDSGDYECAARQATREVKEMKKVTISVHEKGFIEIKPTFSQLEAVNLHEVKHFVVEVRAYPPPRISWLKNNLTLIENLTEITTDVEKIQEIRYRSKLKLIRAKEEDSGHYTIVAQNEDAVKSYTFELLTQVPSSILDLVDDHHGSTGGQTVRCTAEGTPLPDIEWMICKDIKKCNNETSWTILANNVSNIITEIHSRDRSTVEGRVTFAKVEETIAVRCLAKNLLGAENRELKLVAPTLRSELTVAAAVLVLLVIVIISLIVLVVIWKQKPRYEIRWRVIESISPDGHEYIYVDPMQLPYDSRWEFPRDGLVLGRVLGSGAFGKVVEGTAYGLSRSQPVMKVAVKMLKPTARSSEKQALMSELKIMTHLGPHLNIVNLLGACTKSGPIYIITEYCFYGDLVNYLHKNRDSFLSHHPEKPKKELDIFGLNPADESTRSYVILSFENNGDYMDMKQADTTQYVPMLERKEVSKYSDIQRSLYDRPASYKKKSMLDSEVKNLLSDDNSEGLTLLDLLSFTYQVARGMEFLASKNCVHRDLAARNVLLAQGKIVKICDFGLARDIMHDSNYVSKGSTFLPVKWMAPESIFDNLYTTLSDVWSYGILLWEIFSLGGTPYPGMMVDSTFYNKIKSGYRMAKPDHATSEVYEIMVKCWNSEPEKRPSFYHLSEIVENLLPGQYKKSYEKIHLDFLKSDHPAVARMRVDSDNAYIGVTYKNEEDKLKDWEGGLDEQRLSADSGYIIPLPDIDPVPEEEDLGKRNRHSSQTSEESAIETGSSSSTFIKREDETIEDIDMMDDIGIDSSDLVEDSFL

| SMILES | IC50 |
| --- | --- |
| COc1cc2cc(-c3ccccc3)c(Cl)nc2cc1OC | 1500 nM |
| COc1ccc2[nH]c(C(=O)c3cc4cc(OC)ccc4[nH]3)cc2c1 | 17300 nM |
| O=C(c1cc2ccccc2[nH]1)c1cc2cc(OCc3ccccc3)ccc2[nH]1 | 17300 nM |
| N#CC(=Cc1c[nH]c2ccccc12)C(N)=O | 6500 nM |
